Assay results as given in patent US20250255990A1, “FLUORESCENT NANODIAMOND COATED WITH POROUS POLYDOPAMINE, AND USE THEREOF” (KOREA RESEARCH INSTITUTE OF STANDARDS AND SCIENCE, priority 2022, published 2025).

System: HeLa cells
Assay: Annexin V-FITC / PI flow cytometry (FACS)
Type: cell-based
Conditions: 50 μg/mL, 16 hours
Procedure: In addition, analysis was performed using FACS (BD Accuri™, BD Biosciences) to evaluate the biocompatibility of FND@mPDA-PEG. Specifically, HeLa cells were incubated with 50 μg/mL of FND, FND@mPDA-PEG, or doxorubicin for the control experiment at 37° C. for 16 hours and washed with PBS. Cells (1×10^5 cells/sample) were suspended in 100 μL of 1× binding buffer and stained with 5 μL of Annexin V-FITC and 5 μL of PI. The cells were gently vortexed and incubated at room temperature for 15 minutes in the dark. 400 μL of 1× binding buffer was added to each tube and then analyzed by flow cytometry. 10,000 or more events were collected and the data were analyzed using FlowJo™ version 10.7 software.

COc1cccc2c1C(=O)c1c(O)c3c(c(O)c1C2=O)C[C@@](O)(C(=O)CO)C[C@@H]3O[C@H]1C[C@H](N)[C@H](O)[C@H](C)O1 [doxorubicin]
apoptosis / cell survival: induced apoptosis of HeLa cells
